Test results published in patent US20060088843A1 (priority 2004, published 2006).

Assays:
[1] = pI and pH of protein solutions; assay type: physicochemical
[2] = Antiviral activity in similar assays (not specified)
herpesvirus = conditions: cited from earlier work
Semliki Forest virus = conditions: cited from earlier work
mice = assay: Toxicity assay in mice
NAChR = assay type: binding

| Substance | pH of solution [1] | pI [1] | antiviral activity [2] | antiviral activity against herpes (herpesvirus) | antiviral activity against Semliki Forest virus (Semliki Forest virus) | LD50 in mice (mice; injected subcutaneously or intra-peritoneally) | time to death (mice; injection of 1.5 mcg, 25 g mouse) | binding to native receptor (NAChR) |
| --- | --- | --- | --- | --- | --- | --- | --- | --- |
| alpha-cobratoxin [native alpha-cobratoxin] | 10.4 | 9.6 | does not demonstrate antiviral activity | does not have any antiviral activity | does not have any antiviral activity | 1.2 µg | ≤ 25 min |  |
| autoclaved alpha-cobratoxin |  |  |  | no antiviral activity | no antiviral activity |  |  | still capable of binding to its native receptor |
